Results from patent US20260276652A1, “METHODS FOR ASSESSING PLATELET FUNCTION” (UNIVERSITY OF READING, priority 2023, published 2026).
“Also recorded” adds a separate entry of the source.

Key:
[1] = test system: platelets in whole blood; test: In vitro thrombus formation on type I collagen, whole blood perfused at arterial shear rate; format: cell-based, human; conditions: patients with ischaemic heart disease, 6 minutes, 1000 s^-1, student's t-test
Method: Thrombus formation on immobilized type I collagen was performed using the VenaFlux Platform and Vena 8Fluor+Biochips (Cellix). Channels were coated overnight at 4° C. with collagen, then blocked with 1% BSA/PBS for 1 h and replaced with PBS. Blood was collected into sodium citrate (4% w/v). Platelets in whole blood were incubated with 10 mM DiOC6 (Thermo Fisher Scientific) for 10 min. Perfusion was performed at 37° C. with an arterial shear rate of 1000 s^−1 for at least 520 seconds. Thrombus formation was visualised using a 20× magnification lens on a Nikon A1-R confocal microscope. Images were brightness corrected and converted to a binary mask with software provided auto-thresholds. Binary Mask Particles were then analysed to determine thrombus count and size.

[2] = test system: platelets; test: PPAnalysis flow cytometry assay of platelet sensitivity (p-selectin exposure) to CRP-XL in patients with ischaemic heart disease; format: cell-based, human; conditions: for sensitivity to CRP-XL of patients receiving aspirin compared with aspirin-free patients: patients with ischaemic heart disease, student's t-test
Method: The flow cytometry assay measured fluorescein isothiocyanate-conjugated anti-fibrinogen antibody and PE-Cy5-conjugated anti-P-selectin antibody binding following stimulation with ADP ([…]), collagen-related peptide (CRP; […]), epinephrine ([…]), thrombin receptor activator peptide 6 (TRAP-6; […]), and U46619 ([…]) using an Accuri C6 (B D, Winnersh, UK) for cohort 1 and a Beckman-Coulter EPICS Profile XL for cohort 2, as described in supplemental Section 2 of Dunster 2021 (Dunster et al. Multiparameter phenotyping of platelet reactivity for stratification of human cohorts, Blood Adv (2021) 5(20): 4017-4030).
A Platelet Phenomic Analysis (PPAnalysis) assay was carried out described in Dunster 2021. PPAnalysis comprises a flow cytometry-based assay and bespoke software that was developed to make data analysis simple, rapid, and reproducible. The assay simultaneously measures 2 aspects of platelet activation, fibrinogen binding (a marker of αllßb3 activation) and the exposure of P-selectin on the platelet surface (a marker of a-granule secretion). The supplementary information accompanying Dunster 2021 provides step-by-step instructions for setting up and carrying out the PPAnalysis assay and data analysis.

[3] = target: T1, glycoprotein VI (GPVI) receptor (Homo sapiens, UniProt Q9HCN6); conditions: Smethurst et al.; cited from earlier work
T1 sequence (Q9HCN6 21-339): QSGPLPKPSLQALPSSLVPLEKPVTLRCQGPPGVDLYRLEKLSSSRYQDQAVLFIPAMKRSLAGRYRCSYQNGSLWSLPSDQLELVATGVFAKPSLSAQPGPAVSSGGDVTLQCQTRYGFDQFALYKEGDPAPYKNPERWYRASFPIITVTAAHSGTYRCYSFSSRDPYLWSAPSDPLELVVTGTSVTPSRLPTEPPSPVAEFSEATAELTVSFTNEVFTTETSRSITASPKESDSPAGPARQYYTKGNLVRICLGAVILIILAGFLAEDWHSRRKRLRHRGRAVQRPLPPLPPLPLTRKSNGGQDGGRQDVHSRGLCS
T1 sequence (P30273 19-86 partner): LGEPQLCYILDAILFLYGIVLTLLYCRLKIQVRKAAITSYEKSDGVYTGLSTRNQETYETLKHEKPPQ

Compound	in vitro thrombus volume in patients with versus without aspirin [1]	sensitivity to CRP-XL of patients receiving ASA ([2]; patients with ischaemic heart disease receiving ASA, mean ± spread, ASA free patients 7.4±0.49) [log g/mL]	sensitivity to CRP-XL of patients receiving aspirin compared with aspirin-free patients [2]	sensitivity to CRP-XL of patients receiving aspirin compared with aspirin-free patients ([2]; listed as ASA)	platelet agonist potency compared with non-cross-linked CRP [3]
CC(=O)Oc1ccccc1C(=O)O [aspirin]	not reduced; also recorded: not significantly different	7.2±0.37	lower sensitivity to CRP-XL	significantly lower	–
(GPC-(GPO)10-GPCG-amide)3 [CRP-XL]	–	–	–	–	more potent platelet agonist
